According to US20130123222A1, “Synergistic Anti-Cancer Activity of SR16388 with Anti-Mitotic Drugs” (SRI INTERNATIONAL, INC., priority 2011, published 2013):
Numbered stars: 1 amine (or outer) side, 2 acyl side, 3 side chain; on linkers, the order of the positions; unused ones are H or OH. Bridge positions count the residues as written; N and C are the ends. Square brackets hold non-standard residues; d marks the D form. Peptide text beside a SMILES is read from it. I, II: the chains in the order shown. Actinocin(9to1) = Cc1c2oc3c(C)ccc(C(=O)[*:1])c3nc-2c(C(=O)[*:2])c(N)c1=O; NMeV = CN[C@H](C(=O)O)C(C)C; Sar = CNCC(=O)O

How the values were obtained:
[1] = system: panel of 48 to 60 cell lines; assay: 5×4 combination screen with SR16388, CellTiter-Glo viability; synergy by pattern recognition; conditions: in combination with SR16388, 5x4-T1; for no effect (number of cell lines) / synergy (number of cell lines): pattern recognition, of 60 cell lines incl. no data; for % synergy: share of cell lines with data
Method: Cells were treated with compounds alone or in combination for three days and CellTiter-Glo® Luminescent Cell Viability Assay (Promega Corp.) was used as the endpoint to measure cell viability.
Cells were cultured in DMEM with 10% fetal bovine serum and used between passage 2 and passage 20. Cells were harvested on Day-1 (FIG. 1A) and re-supspended to the corresponding seeding density and seeded with Wellmate (ThermoFisher) to 384 plates (BD or GBO).
40 mM Compound stocks in 100% DMSO were made. Master plates were made with Janus (PerkinElmer), then further diluted and added to the cell plates with Matrix Platemate (Thermo) on Day 0.
CellTiter-Glo® Luminescent Cell Viability Assay (Promega Corp.) was used to measure ATP as an indicator of viable cells on Day 3 using Envision (PerkinElmer) and back up reader Analyst HT (MDS) and Gen5 (BioTek).
Single point, 5×4 checkque board platemap was used in the initial screening.
Relative Luminescent Units (RLU) were plotted against corresponding drug concentrations and fitted with standard four parameter sigmoidal curve with custom coded R program or Calcusyn (Biosoft, Cambridge, UK).

[2] = system: panel of 48 to 60 cell lines; assay: 5×4 combination screen with SR16388; synergism hit rate by algorithm (Z score); assay type: cell-based; conditions: in combination with SR16388, all 20 (5×4) dose combinations
Method: (§1) SR16388 was synthesized in house.
5) A “combination score” was assigned to each specific combination (Ca1b1x): C=1 if Za1b1x>3*SD and C=0 if Za1b1x≦3*SD score);
6) Hit rate of each combination was calculated by comparing the sum of the combination scores of all 20 (5×4) dose combinations with all cell lines to the total number of data points of that specific combination;
7) Hit rate were ranked from high to low to identify potential synergistic combinations.

[3] = system: various cancer cell lines; assay: 11×7 synergism hit rate over all cell lines (by algorism); assay type: cell-based; conditions: when tested with SR16388
Excerpt: as §1
Within the same type of cancer cells, some cell lines have more synergistic hits than others. Melanoma and breast cancer cell lines had the highest hit rate.

[4] = Prior in vivo xenograft study and other safety data
cancer cell lines = assay: Combination cell viability assay, general observations on ratios and confirmed synergy; assay type: cell-based; conditions: in combination with SR16388
Method: Cells were treated with compounds alone or in combination for three days and CellTiter-Glo® Luminescent Cell Viability Assay (Promega Corp.) was used as the endpoint to measure cell viability. […] Cells were harvested on Day-1 (FIG. 1A) and re-supspended to the corresponding seeding density and seeded with Wellmate (ThermoFisher) to 384 plates (BD or GBO). […] Master plates were made with Janus (PerkinElmer), then further diluted and added to the cell plates with Matrix Platemate (Thermo) on Day 0. CellTiter-Glo® Luminescent Cell Viability Assay (Promega Corp.) was used to measure ATP as an indicator of viable cells on Day 3 using Envision (PerkinElmer) and back up reader Analyst HT (MDS) and Gen5 (BioTek). Relative Luminescent Units (RLU) were plotted against corresponding drug concentrations and fitted with standard four parameter sigmoidal curve with custom coded R program or Calcusyn (Biosoft, Cambridge, UK).

## Cc1c2oc3c(C)ccc(C(=O)N[C@@H]4C(=O)N[C@H](C(C)C)C(=O)N5CCC[C@H]5C(=O)N(C)CC(=O)N(C)[C@@H](C(C)C)C(=O)O[C@@H]4C)c3nc-2c(C(=O)N[C@@H]2C(=O)N[C@H](C(C)C)C(=O)N3CCC[C@H]3C(=O)N(C)CC(=O)N(C)[C@@H](C(C)C)C(=O)O[C@@H]2C)c(N)c1=O [Actinomycin] (I: T[dV]P[Sar][NMeV] / II: T[dV]P[Sar][NMeV]; ester I:1-I:C, II:1-II:C; linker I:N-II:N via Actinocin(9to1))
[1]
  no effect (number of cell lines): 39
[2]
  % hit/combo: 1.67%
[3]
  hit rate: 1.89%

## CCCCCOC(=O)Nc1nc(=O)n([C@@H]2O[C@H](C)[C@@H](O)[C@H]2O)cc1F [Capecitabine]
[1]
  no effect (number of cell lines): 58
  synergy (number of cell lines): 0
  % synergy: 0%
[2]
  % hit/combo: 1.08%

## N.N.O=C([O-])C1(C(=O)[O-])CCC1.[Pt+2] [Carboplatin]
[1]
  no effect (number of cell lines): 41
  synergy (number of cell lines): 1
  % synergy: 2%
[2]
  % hit/combo: 0.83%

## Cc1ccc(-c2cc(C(F)(F)F)nn2-c2ccc(S(N)(=O)=O)cc2)cc1 [Celecoxib]
[1]
  no effect (number of cell lines): 42
  synergy (number of cell lines): 0
  % synergy: 0%
[2]
  % hit/combo: 0.67%

## Nc1nc(Cl)nc2c1ncn2[C@H]1C[C@H](O)[C@@H](CO)O1 [Cladribine]
[1]
  no effect (number of cell lines): 42
  synergy (number of cell lines): 0
  % synergy: 0%
[2]
  % hit/combo: 0.67%

## Nc1nc(Cl)nc2c1ncn2[C@@H]1O[C@H](CO)[C@@H](O)[C@@H]1F [Clofarabine]
[1]
  no effect (number of cell lines): 58
[2]
  % hit/combo: 0.50%

## Nc1ccn([C@@H]2O[C@H](CO)[C@@H](O)[C@@H]2O)c(=O)n1 [Cytarabine]
[1]
  no effect (number of cell lines): 42
  synergy (number of cell lines): 0
  % synergy: 0%
[2]
  % hit/combo: 0.33%

## Cc1nc(Nc2ncc(C(=O)Nc3c(C)cccc3Cl)s2)cc(N2CCN(CCO)CC2)n1 [Dasatinib]
[1]
  no effect (number of cell lines): 50
  synergy (number of cell lines): 8
  % synergy: 14%
[2]
  % hit/combo: 1.08%

## CO[C@H]1C[C@@H]2CC[C@@H](C)[C@@](O)(O2)C(=O)C(=O)N2CCCC[C@H]2C(=O)O[C@H]([C@H](C)C[C@@H]2CC[C@@H](OCCO)[C@H](OC)C2)CC(=O)[C@H](C)/C=C(\C)[C@@H](O)[C@@H](OC)C(=O)[C@H](C)C[C@H](C)/C=C/C=C/C=C/1C [Everolimus]
[1]
  no effect (number of cell lines): 58
  synergy (number of cell lines): 0
  % synergy: 0%
[2]
  % hit/combo: 0.42%

## O=c1[nH]c(=O)n([C@H]2C[C@H](O)[C@@H](CO)O2)cc1F [Floxuridine]
[1]
  no effect (number of cell lines): 42
  synergy (number of cell lines): 0
  % synergy: 0%
[2]
  % hit/combo: 0.67%

## Nc1nc(F)nc2c1ncn2[C@@H]1O[C@H](CO)[C@@H](O)[C@@H]1O [FluroaraA]
[1]
  no effect (number of cell lines): 42
  synergy (number of cell lines): 0
  % synergy: 0%
[2]
  % hit/combo: 0.67%

## Nc1ccn([C@@H]2O[C@H](CO)[C@@H](O)C2(F)F)c(=O)n1 [Gemcitabine]
[1]
  no effect (number of cell lines): 58
  synergy (number of cell lines): 0
  % synergy: 0%
[2]
  % hit/combo: 0.83%

## Cc1ccc(NC(=O)c2ccc(CN3CCN(C)CC3)cc2)cc1Nc1nccc(-c2cccnc2)n1 [Imatinib]
[1]
  no effect (number of cell lines): 41
  synergy (number of cell lines): 1
  % synergy: 2%
[2]
  % hit/combo: 0.92%

## CS(=O)(=O)CCNCc1ccc(-c2ccc3ncnc(Nc4ccc(OCc5cccc(F)c5)c(Cl)c4)c3c2)o1 [Lapatinib]
[1]
  no effect (number of cell lines): 55
  synergy (number of cell lines): 3
  % synergy: 5%
[2]
  % hit/combo: 0.67%

## N#Cc1ccc(C(c2ccc(C#N)cc2)n2cncn2)cc1 [Letrozole]
[1]
  no effect (number of cell lines): 42
  synergy (number of cell lines): 0
  % synergy: 0%
[2]
  % hit/combo: 0.42%

## COc1nc(N)nc2c1ncn2[C@@H]1O[C@H](CO)[C@@H](O)[C@@H]1O [Nelarabine]
[1]
  no effect (number of cell lines): 58
  synergy (number of cell lines): 0
  % synergy: 0%
[2]
  % hit/combo: 0.33%

## Cc1cn(-c2cc(NC(=O)c3ccc(C)c(Nc4nccc(-c5cccnc5)n4)c3)cc(C(F)(F)F)c2)cn1 [Nilotinib]
[1]
  no effect (number of cell lines): 42
  synergy (number of cell lines): 0
  % synergy: 0%
[2]
  % hit/combo: 0.33%

## CO[C@H]1C[C@@H]2CC[C@@H](C)[C@@](O)(O2)C(=O)C(=O)N2CCCC[C@H]2C(=O)O[C@H]([C@H](C)C[C@@H]2CC[C@@H](O)[C@H](OC)C2)CC(=O)[C@H](C)/C=C(\C)[C@@H](O)[C@@H](OC)C(=O)[C@H](C)C[C@H](C)/C=C/C=C/C=C/1C [Rapamycin]
[1]
  no effect (number of cell lines): 54
[2]
  % hit/combo: 0.83%

## C/C=C1\NC(=O)[C@H]2CSSCC/C=C/[C@H](CC(=O)N[C@H](C(C)C)C(=O)N2)OC(=O)[C@H](C(C)C)NC1=O [Romidepsin]
[1]
  no effect (number of cell lines): 52
  synergy (number of cell lines): 6
  % synergy: 10%
[2]
  % hit/combo: 0.75%

## CCc1c2c(nc3ccc(O)cc13)-c1cc3c(c(=O)n1C2)COC(=O)[C@]3(O)CC [SN38]
[1]
  no effect (number of cell lines): 45
  synergy (number of cell lines): 13
  % synergy: 22%
[2]
  % hit/combo: 0.58%

## C[C@@H]1Cc2cc(O)ccc2[C@H]2CC[C@]3(C)/C(=C/COCCN(C)C)CC[C@H]3[C@H]12 [SR16388]
[4]
  overlapping toxicities with microtubulin inhibitors: does not have ovelapping toxicities
  tolerability: well tolerated

## CCN(CC)CCNC(=O)c1c(C)[nH]c(/C=C2\C(=O)Nc3ccc(F)cc32)c1C [Sunitinib]
[1]
  no effect (number of cell lines): 56
[2]
  % hit/combo: 1.25%

## CC/C(=C(\c1ccccc1)c1ccc(OCCN(C)C)cc1)c1ccccc1 [Tamoxifen]
[1]
  no effect (number of cell lines): 39
  synergy (number of cell lines): 3
  % synergy: 7%
[2]
  % hit/combo: 0.83%

## Cn1nnc2c(C(N)=O)ncn2c1=O [Temozolomide]
[1]
  no effect (number of cell lines): 42
[2]
  % hit/combo: 0.75%

## S=P(N1CC1)(N1CC1)N1CC1 [Thiotepa]
[1]
  no effect (number of cell lines): 42
[2]
  % hit/combo: 0.83%

## CC1=C(/C=C/C(C)=C/C=C/C(C)=C/C(=O)O)C(C)(C)CCC1 [Tretinoin]
[1]
  no effect (number of cell lines): 42
  synergy (number of cell lines): 0
  % synergy: 0%
[2]
  % hit/combo: 0.58%

## CCC1=C[C@@H]2CN(C1)Cc1c([nH]c3ccccc13)[C@@](C(=O)OC)(c1cc3c(cc1OC)N(C)[C@H]1[C@@](O)(C(=O)OC)[C@H](OC(C)=O)[C@]4(CC)C=CCN5CC[C@]31[C@@H]54)C2 [Vinorelbine]
Cancer cell lines
  interaction with SR16388 (confirmed): synergistic anti-proliferation effect

## O=C(CCCCCCC(=O)Nc1ccccc1)NO [Vorinostat]
[1]
  no effect (number of cell lines): 58
  synergy (number of cell lines): 0
  % synergy: 0%
[2]
  % hit/combo: 0.83%
